Test results from patent US9096602B2, “Substituted pyrrolo[2,3-B]pyrazines as ATR kinase inhibitors” (Vertex Pharmaceuticals Incorporated, priority 2011, dated 2015).
pKi: −log10 of the molar value. Read-outs that look alike come from different tables or passages of the source.

Biological target: T1, ATR kinase (full-length ATR) (Homo sapiens, UniProt Q13535)
T1 construct: Assays were carried out at 25° C. in the presence of 5 nM full-length ATR
Experiment: ATR Inhibition Assay (radioactive-phosphate incorporation)
Type: biochemical
Conditions: Ki(app), 5 nM full-length ATR, 10 μM ATP, 800 μM target peptide, 25° C., read-out: ATR Inhibition Ki
In short: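 Radiometric 33P filter assay with 5 nM full-length ATR in 50 mM Tris/HCl pH 7.5, 10 mM MgCl2, 1 mM DTT at 25 °C. Final 10 μM [γ-33P]ATP and 800 μM peptide; 10 min compound preincubation, ATP start, stopped at 24 h with phosphoric acid/ATP. Ki(app) from non-linear regression of background-corrected initial rates.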

[1] = given as numeric lower bound without unit

T1 sequence (Q13535 whole entry): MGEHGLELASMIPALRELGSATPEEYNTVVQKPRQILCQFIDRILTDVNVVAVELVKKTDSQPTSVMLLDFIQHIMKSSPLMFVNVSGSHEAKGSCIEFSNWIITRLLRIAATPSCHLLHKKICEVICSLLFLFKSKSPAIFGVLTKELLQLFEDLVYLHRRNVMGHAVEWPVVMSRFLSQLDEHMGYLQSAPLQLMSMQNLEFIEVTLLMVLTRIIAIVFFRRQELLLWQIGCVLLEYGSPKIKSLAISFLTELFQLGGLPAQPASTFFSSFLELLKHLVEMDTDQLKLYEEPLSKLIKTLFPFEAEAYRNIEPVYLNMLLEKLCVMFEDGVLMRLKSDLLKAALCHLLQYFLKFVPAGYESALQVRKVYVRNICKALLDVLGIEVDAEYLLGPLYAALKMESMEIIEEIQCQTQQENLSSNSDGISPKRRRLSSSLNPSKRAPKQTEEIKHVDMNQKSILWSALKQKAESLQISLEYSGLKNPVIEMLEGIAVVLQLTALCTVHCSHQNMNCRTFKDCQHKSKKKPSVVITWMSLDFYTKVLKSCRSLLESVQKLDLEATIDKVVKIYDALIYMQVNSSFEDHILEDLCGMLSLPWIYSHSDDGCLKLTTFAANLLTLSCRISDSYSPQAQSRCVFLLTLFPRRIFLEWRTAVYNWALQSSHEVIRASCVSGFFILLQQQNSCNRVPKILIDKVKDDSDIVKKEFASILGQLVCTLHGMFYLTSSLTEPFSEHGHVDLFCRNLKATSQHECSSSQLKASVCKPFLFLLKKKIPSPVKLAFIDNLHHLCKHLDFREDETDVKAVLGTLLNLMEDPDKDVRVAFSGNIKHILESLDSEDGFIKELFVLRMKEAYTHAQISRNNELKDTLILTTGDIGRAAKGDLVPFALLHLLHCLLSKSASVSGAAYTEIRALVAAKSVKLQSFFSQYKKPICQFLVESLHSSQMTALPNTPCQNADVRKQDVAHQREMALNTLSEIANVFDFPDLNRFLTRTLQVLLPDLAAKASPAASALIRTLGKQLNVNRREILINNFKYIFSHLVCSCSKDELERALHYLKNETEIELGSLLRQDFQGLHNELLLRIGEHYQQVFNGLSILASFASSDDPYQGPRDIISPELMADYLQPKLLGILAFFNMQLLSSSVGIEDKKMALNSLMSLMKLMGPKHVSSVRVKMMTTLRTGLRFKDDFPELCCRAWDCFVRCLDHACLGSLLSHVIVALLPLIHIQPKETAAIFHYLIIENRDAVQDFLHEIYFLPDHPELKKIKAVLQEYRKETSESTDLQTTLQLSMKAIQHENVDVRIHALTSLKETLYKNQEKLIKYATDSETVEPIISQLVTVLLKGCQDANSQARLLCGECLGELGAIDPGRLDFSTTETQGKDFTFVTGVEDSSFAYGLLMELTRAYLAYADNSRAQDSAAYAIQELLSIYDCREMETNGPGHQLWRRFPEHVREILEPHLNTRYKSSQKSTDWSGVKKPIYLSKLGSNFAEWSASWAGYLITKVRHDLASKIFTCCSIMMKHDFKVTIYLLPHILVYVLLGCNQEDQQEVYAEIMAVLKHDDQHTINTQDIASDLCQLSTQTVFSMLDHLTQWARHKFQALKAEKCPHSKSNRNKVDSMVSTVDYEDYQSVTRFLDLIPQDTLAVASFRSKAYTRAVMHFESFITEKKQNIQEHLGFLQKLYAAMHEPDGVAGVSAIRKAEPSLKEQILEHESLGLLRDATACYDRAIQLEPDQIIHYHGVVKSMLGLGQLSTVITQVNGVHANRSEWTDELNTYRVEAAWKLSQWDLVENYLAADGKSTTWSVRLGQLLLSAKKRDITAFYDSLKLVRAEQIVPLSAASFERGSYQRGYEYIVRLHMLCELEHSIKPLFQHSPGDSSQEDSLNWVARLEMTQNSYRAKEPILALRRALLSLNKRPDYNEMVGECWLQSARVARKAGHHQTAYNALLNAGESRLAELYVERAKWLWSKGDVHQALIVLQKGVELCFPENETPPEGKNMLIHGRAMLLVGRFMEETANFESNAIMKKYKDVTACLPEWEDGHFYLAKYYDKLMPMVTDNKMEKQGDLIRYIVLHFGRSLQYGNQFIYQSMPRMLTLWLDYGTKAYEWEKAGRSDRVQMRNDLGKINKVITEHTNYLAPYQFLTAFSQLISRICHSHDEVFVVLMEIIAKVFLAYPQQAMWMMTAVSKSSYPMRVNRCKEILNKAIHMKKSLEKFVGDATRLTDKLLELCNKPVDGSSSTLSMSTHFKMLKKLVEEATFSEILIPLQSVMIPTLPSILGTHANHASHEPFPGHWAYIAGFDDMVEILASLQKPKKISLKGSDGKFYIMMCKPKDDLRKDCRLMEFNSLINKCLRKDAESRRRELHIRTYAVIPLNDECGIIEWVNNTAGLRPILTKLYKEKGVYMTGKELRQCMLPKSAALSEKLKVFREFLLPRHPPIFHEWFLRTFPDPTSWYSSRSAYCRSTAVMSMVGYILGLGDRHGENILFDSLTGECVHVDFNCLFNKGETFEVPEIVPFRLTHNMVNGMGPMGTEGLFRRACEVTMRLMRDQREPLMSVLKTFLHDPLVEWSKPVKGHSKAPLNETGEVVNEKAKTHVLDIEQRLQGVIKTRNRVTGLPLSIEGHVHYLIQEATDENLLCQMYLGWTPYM

SMILES	pKi (class symbols)	pKi [1]
CC(C)S(=O)(=O)c1ccc(-c2cnc3[nH]cc(C(=O)N4CCCCC4CO)c3n2)cc1 (stereo not drawn) [Compound I-115, [2-(hydroxymethyl)-1-piperidyl]-[2-(4-isopropylsulfonylphenyl)-5H-pyrrolo[2,3-b]pyrazin-7-yl]methanone]	5.30 to 6.30	
CC(C)S(=O)(=O)c1ccc(-c2cnc3[nH]cc(C(=O)Nc4ccc(C#N)cc4)c3n2)cc1 [Compound I-14, N-(4-cyanophenyl)-2-(4-isopropylsulfonylphenyl)-5H-pyrrolo[2,3-b]pyrazine-7-carboxamide]	5.30 to 6.30	
CC(C)S(=O)(=O)c1ccc(-c2cnc3[nH]cc(C(=O)N4CCN(C)CC4)c3n2)cc1 [Compound I-114, [2-(4-isopropylsulfonylphenyl)-5H-pyrrolo[2,3-b]pyrazin-7-yl]-(4-methylpiperazin-1-yl)methanone]	5.30 to 6.30	
CC(C)S(=O)(=O)c1ccc(-c2cnc3[nH]cc(C(=O)NCC4CCCCC4)c3n2)cc1 [Compound I-31, N-(cyclohexylmethyl)-2-(4-isopropylsulfonylphenyl)-5H-pyrrolo[2,3-b]pyrazine-7-carboxamide]		< 6.30
CC(C)S(=O)(=O)c1ccc(-c2cnc3[nH]cc(C(=O)N4CCC(O)C4)c3n2)cc1 (stereo not drawn) [Compound I-28, (3-hydroxypyrrolidin-1-yl)-[2-(4-isopropylsulfonylphenyl)-5H-pyrrolo[2,3-b]pyrazin-7-yl]methanone]	5.30 to 6.30	
Cc1cccc(NC(=O)c2c[nH]c3ncc(-c4ccc(S(=O)(=O)C(C)C)cc4)nc23)c1 [Compound I-76, 2-(4-isopropylsulfonylphenyl)-N-(m-tolyl)-5H-pyrrolo[2,3-b]pyrazine-7-carboxamide]	5.30 to 6.30	
CC(C)S(=O)(=O)c1ccc(-c2cnc3[nH]cc(C(=O)NCC4(N)CCCCC4)c3n2)cc1 [Compound I-90, N-[(1-aminocyclohexyl)methyl]-2-(4-isopropylsulfonylphenyl)-5H-pyrrolo[2,3-b]pyrazine-7-carboxamide]		< 6.60
CC(C)S(=O)(=O)c1ccc(-c2cnc3[nH]cc(C(=O)NCc4ccccn4)c3n2)cc1 [Compound I-52, 2-(4-isopropylsulfonylphenyl)-N-(2-pyridylmethyl)-5H-pyrrolo[2,3-b]pyrazine-7-carboxamide]	6.30 to 7.00	
CC(C)S(=O)(=O)c1ccc(-c2cnc3[nH]cc(C(=O)NCC4CCCC4)c3n2)cc1 [Compound I-30, N-(cyclopentylmethyl)-2-(4-isopropylsulfonylphenyl)-5H-pyrrolo[2,3-b]pyrazine-7-carboxamide]	5.30 to 6.30	
CC(C)S(=O)(=O)c1ccc(-c2cnc3[nH]cc(C(=O)NCC4(C)COC4)c3n2)cc1 [Compound I-105, 2-(4-isopropylsulfonylphenyl)-N-[(3-methyloxetan-3-yl)methyl]-5H-pyrrolo[2,3-b]pyrazine-7-carboxamide]	5.30 to 6.30	
CC(C)S(=O)(=O)c1ccc(-c2cnc3[nH]cc(C(=O)NC4CCC4)c3n2)cc1 [Compound I-97, N-cyclobutyl-2-(4-isopropylsulfonylphenyl)-5H-pyrrolo[2,3-b]pyrazine-7-carboxamide]	6.30 to 7.00	
CC(C)S(=O)(=O)c1ccc(-c2cnc3[nH]cc(C(=O)NC4CN(C(=O)OC(C)(C)C)C4)c3n2)cc1 [Compound I-111, tert-butyl 3-[[2-(4-isopropylsulfonylphenyl)-5H-pyrrolo[2,3-b]pyrazine-7-carbonyl]amino]azetidine-1-carboxylate]		< 6.60
CC(C)S(=O)(=O)c1ccc(-c2cnc3[nH]cc(C(=O)Nc4ccc(C(N)=O)cc4)c3n2)cc1 [Compound I-47, N-(4-carbamoylphenyl)-2-(4-isopropylsulfonylphenyl)-5H-pyrrolo[2,3-b]pyrazine-7-carboxamide]		< 6.60
CC(C)S(=O)(=O)c1ccc(-c2cnc3[nH]cc(C(=O)N[C@@H]4c5ccccc5C[C@@H]4O)c3n2)cc1 [Compound I-65, N-[(1R,2S)-2-hydroxyindan-1-yl]-2-(4-isopropylsulfonylphenyl)-5H-pyrrolo[2,3-b]pyrazine-7-carboxamide]	5.30 to 6.30	

Second part, the compound after the results:

pKi (class symbols)	pKi [1]	SMILES
6.30 to 7.00		CC(C)S(=O)(=O)c1ccc(-c2cnc3[nH]cc(C(=O)NC4(CO)CCCC4)c3n2)cc1 [Compound I-44, N-[1-(hydroxymethyl)cyclopentyl]-2-(4-isopropylsulfonylphenyl)-5H-pyrrolo[2,3-b]pyrazine-7-carboxamide]
> 7.00		CC(C)S(=O)(=O)c1ccc(-c2cnc3[nH]cc(C(=O)NCc4ccccc4Cl)c3n2)cc1 [Compound I-48, N-[(2-chlorophenyl)methyl]-2-(4-isopropylsulfonylphenyl)-5H-pyrrolo[2,3-b]pyrazine-7-carboxamide]
> 7.00		Cc1cccc(CNC(=O)c2c[nH]c3ncc(-c4ccc(S(=O)(=O)C(C)C)cc4)nc23)c1C [Compound I-68, N-[(2,3-dimethylphenyl)methyl]-2-(4-isopropylsulfonylphenyl)-5H-pyrrolo[2,3-b]pyrazine-7-carboxamide]
6.30 to 7.00		CC(C)S(=O)(=O)c1ccc(-c2cnc3[nH]cc(C(=O)N[C@@H](C)c4ccccc4F)c3n2)cc1 [Compound I-71, N-[(1S)-1-(2-fluorophenyl)ethyl]-2-(4-isopropylsulfonylphenyl)-5H-pyrrolo[2,3-b]pyrazine-7-carboxamide]
> 7.00		Cc1ccc([C@@H](CCO)NC(=O)c2c[nH]c3ncc(-c4ccc(S(=O)(=O)C(C)C)cc4)nc23)cc1 [Compound I-81, N-[(1R)-3-hydroxy-1-(p-tolyl)propyl]-2-(4-isopropylsulfonylphenyl)-5H-pyrrolo[2,3-b]pyrazine-7-carboxamide]
6.30 to 7.00		CC(C)S(=O)(=O)c1ccc(-c2cnc3[nH]cc(C(=O)Nc4ccncc4)c3n2)cc1 [Compound I-6, 2-(4-isopropylsulfonylphenyl)-N-(4-pyridyl)-5H-pyrrolo[2,3-b]pyrazine-7-carboxamide]
6.30 to 7.00		CC(C)S(=O)(=O)c1ccc(-c2cnc3[nH]cc(C(=O)NC(CCO)c4ccc(F)cc4)c3n2)cc1 (stereo not drawn) [Compound I-78, N-[1-(4-fluorophenyl)-3-hydroxy-propyl]-2-(4-isopropylsulfonylphenyl)-5H-pyrrolo[2,3-b]pyrazine-7-carboxamide]
> 7.00		CC(C)S(=O)(=O)c1ccc(-c2cnc3[nH]cc(C(=O)Nc4cccc(C(N)=O)c4)c3n2)cc1 [Compound I-36, N-(3-carbamoylphenyl)-2-(4-isopropylsulfonylphenyl)-5H-pyrrolo[2,3-b]pyrazine-7-carboxamide]
6.30 to 7.00		CC(C)S(=O)(=O)c1ccc(-c2cnc3[nH]cc(C(=O)NCc4cccc(F)c4)c3n2)cc1 [Compound I-75, N-[(3-fluorophenyl)methyl]-2-(4-isopropylsulfonylphenyl)-5H-pyrrolo[2,3-b]pyrazine-7-carboxamide]
> 7.00		CC(C)S(=O)(=O)c1ccc(-c2cnc3[nH]cc(C(=O)NC[C@@H]4CCCC[C@H]4O)c3n2)cc1 [Compound I-33, N-[[(1S,2R)-2-hydroxycyclohexyl]methyl]-2-(4-isopropylsulfonylphenyl)-5H-pyrrolo[2,3-b]pyrazine-7-carboxamide]
> 7.00		CC(C)S(=O)(=O)c1ccc(-c2cnc3[nH]cc(C(=O)NC[C@H](O)c4ccccc4)c3n2)cc1 [Compound I-37, N-[(2R)-2-hydroxy-2-phenyl-ethyl]-2-(4-isopropylsulfonylphenyl)-5H-pyrrolo[2,3-b]pyrazine-7-carboxamide]
6.30 to 7.00		COC[C@H](C)NC(=O)c1c[nH]c2ncc(-c3ccc(S(=O)(=O)C(C)C)cc3)nc12 [Compound I-110, 2-(4-isopropylsulfonylphenyl)-N-[(1S)-2-methoxy-1-methyl-ethyl]-5H-pyrrolo[2,3-b]pyrazine-7-carboxamide]
> 7.00		CC(C)S(=O)(=O)c1ccc(-c2cnc3[nH]cc(C(=O)NCC4CCCCC4O)c3n2)cc1 (stereo not drawn) [Compound I-101, N-[(2-hydroxycyclohexyl)methyl]-2-(4-isopropylsulfonylphenyl)-5H-pyrrolo[2,3-b]pyrazine-7-carboxamide]
> 7.00		Cc1cc(NC(=O)c2c[nH]c3ncc(-c4ccc(S(=O)(=O)C(C)C)cc4)nc23)[nH]n1 [Compound I-55, 2-(4-isopropylsulfonylphenyl)-N-(3-methyl-1H-pyrazol-5-yl)-5H-pyrrolo[2,3-b]pyrazine-7-carboxamide]
> 7.00		Cc1cccc(Cl)c1CNC(=O)c1c[nH]c2ncc(-c3ccc(S(=O)(=O)C(C)C)cc3)nc12 [Compound I-54, N-[(2-chloro-6-methyl-phenyl)methyl]-2-(4-isopropylsulfonylphenyl)-5H-pyrrolo[2,3-b]pyrazine-7-carboxamide]
> 7.00		CC(C)S(=O)(=O)c1ccc(-c2cnc3[nH]cc(C(=O)NCc4ccccc4CO)c3n2)cc1 [Compound I-129, N-[[2-(hydroxymethyl)phenyl]methyl]-2-(4-isopropylsulfonylphenyl)-5H-pyrrolo[2,3-b]pyrazine-7-carboxamide]
> 7.00		CC(C)S(=O)(=O)c1ccc(-c2cnc3[nH]cc(C(=O)Nc4cccc(O)c4)c3n2)cc1 [Compound I-22, N-(3-hydroxyphenyl)-2-(4-isopropylsulfonylphenyl)-5H-pyrrolo[2,3-b]pyrazine-7-carboxamide]
> 7.00		CC(C)S(=O)(=O)c1ccc(-c2cnc3[nH]cc(C(=O)Nc4ccccc4C#N)c3n2)cc1 [Compound I-41, N-(2-cyanophenyl)-2-(4-isopropylsulfonylphenyl)-5H-pyrrolo[2,3-b]pyrazine-7-carboxamide]
> 7.00		CC(C)S(=O)(=O)c1ccc(-c2cnc3[nH]cc(C(=O)NCc4ccc5c(c4)OCO5)c3n2)cc1 [Compound I-125, N-(1,3-benzodioxol-5-ylmethyl)-2-(4-isopropylsulfonylphenyl)-5H-pyrrolo[2,3-b]pyrazine-7-carboxamide]
